Source: patent publication US12686665B2, “Bicyclic fused ring derivative or salt thereof and pharmaceutical composition comprising same” (YUHAN CORPORATION, priority 2021, dated 2026)
Where a name gives a salt, the structure may show the parent alone.

Each molecule was assayed against T1, recombinant human Lysyl Oxidase-Like 2 (LOXL2) (Homo sapiens, UniProt Q9Y4K0) (assay: Amplex Red HRP-coupled amine oxidase assay, recombinant human LOXL2). Conditions: 60 min incubation with enzyme at 37° C., putrescine substrate, read-out: Inhibitory activity (IC50, nM) human LOXL2.
T1 construct: purchased R&D systems
T1 sequence (Q9Y4K0 26-774): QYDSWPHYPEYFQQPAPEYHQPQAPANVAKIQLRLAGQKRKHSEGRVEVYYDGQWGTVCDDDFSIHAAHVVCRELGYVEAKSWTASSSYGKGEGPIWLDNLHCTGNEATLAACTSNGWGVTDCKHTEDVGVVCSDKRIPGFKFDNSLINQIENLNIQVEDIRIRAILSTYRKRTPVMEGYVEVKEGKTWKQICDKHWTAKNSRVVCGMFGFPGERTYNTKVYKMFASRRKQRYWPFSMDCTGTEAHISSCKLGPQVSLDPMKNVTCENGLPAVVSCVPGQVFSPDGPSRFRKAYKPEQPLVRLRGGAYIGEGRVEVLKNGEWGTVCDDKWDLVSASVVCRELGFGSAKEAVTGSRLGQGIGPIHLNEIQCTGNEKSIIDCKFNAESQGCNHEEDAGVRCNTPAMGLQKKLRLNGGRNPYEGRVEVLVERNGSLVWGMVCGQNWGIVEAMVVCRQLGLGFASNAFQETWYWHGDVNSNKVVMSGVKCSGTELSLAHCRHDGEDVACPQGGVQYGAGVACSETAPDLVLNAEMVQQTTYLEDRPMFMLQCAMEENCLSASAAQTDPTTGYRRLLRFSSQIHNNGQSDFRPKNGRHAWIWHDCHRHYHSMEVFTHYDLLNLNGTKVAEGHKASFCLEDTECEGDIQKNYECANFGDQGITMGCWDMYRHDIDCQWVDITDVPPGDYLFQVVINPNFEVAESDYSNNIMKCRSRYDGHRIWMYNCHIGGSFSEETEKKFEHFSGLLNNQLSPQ
Assay type: biochemical
Experimental: The activities of the compounds according to the present invention against recombinant human Lysyl Oxidase-Like 2 (recombinant human LOXL2, R&D systems) were evaluated by measuring the levels of hydrogen peroxide in the HRP (horseradish peroxidase) coupled reactions, with the Amplex Red Hydrogen Peroxide Assay Kit (Molecular Probes, Invitrogen, USA). The tests were carried out at 37° C., and putrescine was used as a substrate. In the HRP coupling reaction, the oxidation of 10-acetyl-3,7-dihydroxyphenoxazine (Amplex Red reagent) by hydrogen peroxide generates a fluorescent product, i.e., resorufin. Briefly, the test compounds were dissolved in dimethyl sulfoxide (DMSO) at a concentration of 20 mM. Dose-response measurements were carried out by serial dilutions in DMSO to generate a six-point curve. The upper concentration was adjusted according to the potency of the compound, and then diluted with the reaction buffer to obtain a final DMSO concentration of 1%. Purified human LOXL2 in 50 mM sodium phosphate buffer (pH7.4) was added to each well of a 96 well black plate. The test compounds dissolved in DMSO were incubated with the human LOXL2 enzyme at 37° C. for 60 minutes. After the incubation for 60 minutes, a reaction mixture containing 400 μM Amplex Red reagent, 30 mM putrescine, and 2 U/mL HRP in 50 mM sodium phosphate buffer (pH 7.4) was added to each well. Fluorescence was measured with a microplate reader (Flexstation3, Molecular Devices), under the conditions of excitation at 530 nm and emission at 590 nm, 1 hour after the addition of the mixture. Inhibition by each compound was measured as % reduction in signal, compared to the control without an inhibitor (diluted DMSO only). The data were fixed to a four-variable logistic model, and […] values were calculated using the GraphPad Prism program.

Row | SMILES | IC50 [nM]
1 | CONC(=O)c1cc(-c2cccc(S(=O)(=O)N3CCCC3)c2)c2nnn(C/C(F)=C/CN)c2c1 [Example 133, (Z)-1-(4-amino-2-fluorobut-2-en-1-yl)-N-methoxy-4-(3-(pyrrolidin-1-ylsulfonyl)phenyl)-1H-benzo[d][1,2,3]triazol-6-carboxamide hydrochloride] | 24.4
2 | COc1ccc(S(=O)(=O)N2CCN(C)CC2)cc1-c1cccc2c1nnn2C/C(F)=C/CN [Example 113, (Z)-3-fluoro-4-(4-(2-methoxy-5-((4-methylpiperazin-1-yl)sulfonyl)phenyl)-1H-benzo[d][1,2,3]triazol-1-yl)but-2-en-1-amine hydrochloride] | 65
3 | Cn1nc(C(F)(F)F)cc1-c1cc(C(F)(F)F)cc2c1ncn2C/C(F)=C/CN [Example 179, (Z)-3-fluoro-4-(4-[1-methyl-3-(trifluoromethyl)-1H-pyrazol-5-yl]-6-(trifluoromethyl)-1H-benzo[d]imidazol-1-yl)but-2-en-1-amine hydrochloride] | 506
4 | NC/C=C(\F)Cn1nnc2c(-c3cncnc3)cc(C(F)(F)F)cc21 [Example 202, (Z)-3-fluoro-4-(4-(pyrimidin-5-yl)-6-(trifluoromethyl)-1H-benzo[d][1,2,3]triazol-1-yl)but-2-en-1-amine hydrochloride] | 190
5 | COC(=O)c1cc(-c2cc(S(=O)(=O)C(F)(F)F)ccc2C)c2nnn(C/C(F)=C/CN)c2c1 [Example 128, methyl (Z)-1-(4-amino-2-fluorobut-2-en-1-yl)-4-(2-methyl-5-((trifluoromethyl)sulfonyl)phenyl)-1H-benzo[d][1,2,3]triazol-6-carboxylate hydrochloride] | 94.2
6 | CCn1nccc1-c1cc(C(F)(F)F)cc2c1nnn2C/C(F)=C/CN [Example 203, (Z)-4-(4-(1-ethyl-1H-pyrazol-5-yl)-6-(trifluoromethyl)-1H-benzo[d][1,2,3]triazol-1-yl)-3-fluorobut-2-en-1-amine hydrochloride] | 351
7 | CCN(CC)S(=O)(=O)c1ccc(OC)c(-c2cc(C(=O)OC)cc3c2ncn3C/C(F)=C/CN)c1 [Example 26, methyl (Z)-1-(4-amino-2-fluorobut-2-en-1-yl)-4-(5-(N,N-diethylsulfamoyl)-2-methoxyphenyl)-1H-benzo[d]imidazol-6-carboxylate hydrochloride] | 62.5
8 | N#Cc1cc(-c2cncnc2)c2ncn(C/C(F)=C/CN)c2c1 [Example 190, (Z)-1-(4-amino-2-fluorobut-2-en-1-yl)-4-(pyrimidin-5-yl)-1H-benzo[d]imidazol-6-carbonitrile hydrochloride] | 117
9 | NC/C=C(\F)Cn1nnc2c(-c3cncc(Cl)c3)cc(C(F)(F)F)cc21 [Example 201, (Z)-4-(4-(5-chloropyridin-3-yl)-6-(trifluoromethyl)-1H-benzo[d][1,2,3]triazol-1-yl)-3-fluorobut-2-en-1-amine hydrochloride] | 142
10 | N#Cc1cc(-c2cncc(Cl)c2)c2ncn(C/C(F)=C/CN)c2c1 [Example 189, (Z)-1-(4-amino-2-fluorobut-2-en-1-yl)-4-(5-chloropyridin-3-yl)-1H-benzo[d]imidazol-6-carbonitrile hydrochloride] | 92.8
11 | Cc1cc(-c2cc(C(F)(F)F)cc3c2nnn3C/C(F)=C/CN)n(C)n1 [Example 204, (Z)-4-[4-(1,3-dimethyl-1H-pyrazol-5-yl)-6-(trifluoromethyl)-1H-benzo[d][1,2,3]triazol-1-yl]-3-fluorobut-2-en-1-amine hydrochloride] | 497
12 | NC/C=C(\F)Cn1nnc2c(-c3cnn(CCO)c3)cc(C(F)(F)F)cc21 [Example 205, (Z)-2-(4-(1-(4-amino-2-fluorobut-2-en-1-yl)-6-(trifluoromethyl)-1H-benzo[d][1,2,3]triazol-4-yl]-1H-pyrazol-1-yl)ethan-1-ol hydrochloride] | 182
13 | CCN(CC)S(=O)(=O)c1cccc(-c2cc(C(=O)OC)cc3c2ncn3C/C(F)=C/CN)c1 [Example 37, methyl (Z)-1-(4-amino-2-fluorobut-2-en-1-yl)-4-(3-(N,N-diethylsulfamoyl)phenyl)-1H-benzo[d]imidazol-6-carboxylate hydrochloride] | 70.3
14 | N#Cc1cc(-c2cccc(CO)c2Cl)c2ncn(C/C(F)=C/CN)c2c1 [Example 186, (Z)-1-(4-amino-2-fluoro-2-but-1-yl)-4-(2-chloro-3-(hydroxymethyl)phenyl)-1H-benzo[d]imidazol-6-carbonitrile hydrochloride] | 109
15 | COC(=O)c1cc(-c2cccc(S(C)(=O)=O)c2)c2nnn(C/C(F)=C/CN)c2c1 [Example 118, methyl (Z)-1-(4-amino-2-fluorobut-2-en-1-yl)-4-(3-(methylsulfonyl)phenyl)-1H-benzo[d][1,2,3]triazol-6-carboxylate hydrochloride] | 34
16 | CNS(=O)(=O)c1cccc(-c2cc(C(=O)OC)cc3c2nnn3C/C(F)=C/CN)c1 [Example 123, methyl (Z)-1-(4-amino-2-fluorobut-2-en-1-yl)-4-(3-(N-methylsulfamoyl)phenyl)-1H-benzo[d][1,2,3]triazol-6-carboxylate hydrochloride] | 12.6
17 | CON(C)C(=O)c1cc(-c2cccc(S(=O)(=O)N(C)C)c2)c2nnn(C/C(F)=C/CN)c2c1 [Example 139, (Z)-1-(4-amino-2-fluorobut-2-en-1-yl)-4-(3-(N,N-dimethylsulfamoyl)phenyl)-N-methoxy-N-methyl-1H-benzo[d][1,2,3]triazol-6-carboxamide] | 69.6
18 | NC/C=C(\F)Cn1cnc2c(-c3cnn(CCO)c3)cc(C(F)(F)F)cc21 [Example 180, (Z)-2-(4-(1-(4-amino-2-fluorobut-2-en-1-yl)-6-(trifluoromethyl)-1H-benzo[d]imidazol-4-yl)-1H-pyrazol-1-yl)ethan-1-ol hydrochloride] | 323
19 | NC/C=C(\F)Cn1nnc2c(-c3cncc(F)c3)cc(C(F)(F)F)cc21 [Example 200, (Z)-3-fluoro-4-(4-(5-fluoropyridin-3-yl)-6-(trifluoromethyl)-1H-benzo[d][1,2,3]triazol-1-yl)but-2-en-1-amine hydrochloride] | 330
20 | N#Cc1cc(-c2cncc(F)c2)c2ncn(C/C(F)=C/CN)c2c1 [Example 188, (Z)-1-(4-amino-2-fluorobut-2-en-1-yl)-4-(5-fluoropyridin-3-yl)-1H-benzo[d]imidazol-6-carbonitrile hydrochloride] | 131
21 | CON(C)C(=O)c1cc(-c2cccc(S(=O)(=O)N3CCCC3)c2)c2nnn(C/C(F)=C/CN)c2c1 [Example 137, (Z)-1-(4-amino-2-fluorobut-2-en-1-yl)-N-methoxy-N-methyl-4-(3-(pyrrolidin-1-ylsulfonyl)phenyl)-1H-benzo[d][1,2,3]triazol-6-carboxamide hydrochloride] | 37
22 | COC(=O)c1cc(-c2cccc(S(=O)(=O)NC3CC3)c2)c2nnn(C/C(F)=C/CN)c2c1 [Example 122, methyl (Z)-1-(4-amino-2-fluorobut-2-en-1-yl)-4-(3-(N-cyclopropylsulfamoyl)phenyl)-1H-benzo[d][1,2,3]triazol-6-carboxylate hydrochloride] | 32.2
23 | N#Cc1cc(-c2cc(CO)ccc2F)c2ncn(C/C(F)=C/CN)c2c1 [Example 185, (Z)-1-(4-amino-2-fluorobut-2-en-1-yl)-4-(2-fluoro-5-(hydroxymethyl)phenyl)-1H-benzo[d]imidazol-6-carbonitrile hydrochloride] | 105
24 | CCN(CC)S(=O)(=O)c1ccc(OC)c(-c2cc(C(=O)N(C)OC)cc3c2nnn3C/C(F)=C/CN)c1 [Example 138, (Z)-1-(4-amino-2-fluorobut-2-en-1-yl)-4-(5-(N,N-diethylsulfamoyl)-2-methoxyphenyl)-N-m ethoxy-N-methyl-1H-benzo[d][1,2,3]triazol-6-carboxamide hydrochloride] | 54.3
